Test results as given in DBAASP.
Values after ≈ are worked out from the molar mass of the structure shown.

Legend:
Test in all cases: ≥ marks a high value that may be exact or a test limit, other limits are often not marked, values filed in µg/mL are converted to µM
Escherichia coli BL21 = tested on: Escherichia coli BL21
[1] = tested on: Streptococcus pyogenes M1T1 5448
[2] = tested on: Pseudomonas aeruginosa PAO1
[3] = tested on: Pseudomonas aeruginosa Ps4
[4] = tested on: Enterococcus faecium ATCC 700221
[5] = tested on: Pseudomonas aeruginosa ATCC 27853
[6] = tested on: Klebsiella pneumoniae ATCC 700603
[7] = tested on: Salmonella enterica ATCC 6539
[8] = tested on: Escherichia coli ATCC 25922
[9] = tested on: Staphylococcus aureus ATCC 43300
[10] = tested on: Acinetobacter baumannii ATCC BAA-747
Candida albicans CA1 = tested on: Candida albicans CA1
[11] = tested on: Candida albicans ATCC 90029
[12] = tested on: Candida krusei ATCC 40147
[13] = tested on: Pseudomonas aeruginosa PA14
[14] = tested on: Candida tropicalis ATCC 750
[15] = tested on: Acinetobacter baumannii AB1
[16] = tested on: Klebsiella pneumoniae KP1
[17] = tested on: Candida parapsilosis ATCC 90018
Escherichia coli EC16 = tested on: Escherichia coli EC16
Escherichia coli EC18 = tested on: Escherichia coli EC18
Escherichia coli UTI89 = tested on: Escherichia coli UTI89
Escherichia coli = tested on: Escherichia coli
Escherichia coli CFT073 = tested on: Escherichia coli CFT073
[18] = tested on: Salmonella typhimurium SL1344
[19] = tested on: Staphylococcus aureus ATCC 25923
Escherichia coli E44813 = tested on: Escherichia coli E44813
[20] = tested on: Listeria monocytogenes CICC 21533
[21] = tested on: Staphylococcus epidermidis LY8
[22] = tested on: Pasteurella multocida C48-3
[23] = tested on: Bacillus subtilis CICC 24434
[24] = tested on: Salmonella enterica subsp. enterica serovar Choleraesuis C78-1
[25] = tested on: Bacillus subtilis ATCC 6633
[26] = tested on: Candida albicans CGMCC 2.2411
[27] = tested on: Enterococcus faecalis CVCC 3936
[28] = tested on: Pseudomonas aeruginosa CICC 10419
[29] = tested on: Listeria ivanovii ATCC 19119
[30] = tested on: Escherichia coli CVCC 1515
[31] = tested on: Salmonella enterica subsp. enterica serovar Typhimurium ATCC 14028
[32] = tested on: Escherichia coli CVCC 195
[33] = tested on: Salmonella enterica subsp. enterica serovar Pullorum CVCC 1809
[34] = tested on: Streptococcus suis CVCC 606
[35] = tested on: Salmonella enterica subsp. enterica serovar Pullorum CVCC 533

Compound `CC[C@H](C)[C@H](NC(=O)[C@H](Cc1c[nH]c2ccccc12)NC(=O)[C@H](C)NC(=O)[C@H](CCCN=C(N)N)NC(=O)[C@H](CCCCN)NC(=O)CNC(=O)[C@H](CCCCN)NC(=O)[C@H](CCC(=O)O)NC(=O)[C@H](CCC(N)=O)NC(=O)[C@@H](NC(=O)[C@H](CCCCN)NC(=O)[C@H](CCCCN)NC(=O)[C@H](CCCCN)NC(=O)[C@H](CC(C)C)NC(=O)[C@H](CCCN=C(N)N)NC(=O)[C@H](CCC(N)=O)NC(=O)[C@H](Cc1ccccc1)NC(=O)[C@@H](NC(=O)[C@@H](NC(=O)[C@H](CCC(=O)O)NC(=O)[C@H](CCCCN)NC(=O)CNC(=O)[C@H](C)N)[C@@H](C)O)[C@@H](C)CC)[C@@H](C)CC)C(=O)N[C@@H](C)C(=O)N[C@@H](Cc1c[nH]c2ccccc12)C(=O)O` [AGKETIFQRLKKKIQEKGKRAWIAW] has an MIC (Escherichia coli BL21) of 0.0156 µM (≈ 0.047 µg/mL), an MIC [1] of 0.125 µM (≈ 0.377 µg/mL) and an MIC [2] of 32 µM (≈ 96.5 µg/mL).

With `CC[C@H](C)[C@H](NC(=O)[C@H](CC(N)=O)NC(=O)[C@H](CCCN=C(N)N)NC(=O)[C@H](CCC(N)=O)NC(=O)[C@H](Cc1c[nH]c2ccccc12)NC(=O)[C@@H](N)Cc1ccccc1)C(=O)N[C@@H](CCCN=C(N)N)C(=O)N[C@@H](CCCCN)C(=O)N[C@H](C(=O)N[C@@H](CCCN=C(N)N)C(N)=O)C(C)C` [FWQRNIRKVR] the MIC [3] was at least 178 µM.

In the case of `NCCCC[C@H](NC(=O)CNC(=O)CNC(=O)[C@H](CCCN=C(N)N)NC(=O)[C@H](CS)NC(=O)[C@H](Cc1ccc(O)cc1)NC(=O)[C@H](Cc1c[nH]c2ccccc12)NC(=O)[C@H](CCCN=C(N)N)NC(=O)[C@H](Cc1c[nH]c2ccccc12)NC(=O)[C@H](Cc1cnc[nH]1)NC(=O)CNC(=O)CN)C(N)=O` [GGHWRWYCRGGK], the MIC [4] is reported as 3 µM (≈ 4.39 µg/mL), the MIC [5] is reported as 11 µM (≈ 16.1 µg/mL) and the MIC [6] is reported as 11 µM (≈ 16.1 µg/mL). For the same compound, the MIC [7] was 1 µM (≈ 1.46 µg/mL), the MIC [8] was 3 µM (≈ 4.39 µg/mL) and the MIC [9] was 11 µM (≈ 16.1 µg/mL). For the same compound, the MIC [10] was 11 µM (≈ 16.1 µg/mL).

Work on `CC[C@H](C)[C@H](NC(=O)CNC(=O)[C@H](C)NC(=O)[C@H](CCCCN)NC(=O)CNC(=O)[C@H](CCSC)NC(=O)[C@H](CCC(=O)O)NC(=O)[C@H](CCCCN)NC(=O)[C@@H](NC(=O)[C@@H](NC(=O)[C@H](CCCCN)NC(=O)[C@@H](NC(=O)[C@@H](NC(=O)[C@H](CCCCN)NC(=O)[C@H](CC(=O)O)NC(=O)[C@H](CCCCN)NC(=O)[C@H](Cc1cnc[nH]1)NC(=O)[C@H](CCCCN)NC(=O)[C@H](CC(N)=O)NC(=O)[C@H](Cc1c[nH]c2ccccc12)NC(=O)[C@H](Cc1c[nH]c2ccccc12)NC(=O)[C@H](CC(=O)O)NC(=O)[C@H](CCCCN)NC(=O)[C@H](CC(C)C)NC(=O)CN)[C@@H](C)CC)C(C)C)C(C)C)C(C)C)C(=O)N[C@@H](CC(N)=O)C(=O)N[C@@H](C)C(=O)N[C@@H](C)C(N)=O` [GLKDWWNKHKDKIVKVVKEMGKAGINAA] yielded an MIC (Candida albicans CA1) of 5 µM (≈ 15.8 µg/mL), an MIC [11] of 10 µM (≈ 31.6 µg/mL) and an MIC [12] of 2.5 µM (≈ 7.91 µg/mL). It also gave an MIC [13] of 5 µM (≈ 15.8 µg/mL), an MIC [14] of 10 µM (≈ 31.6 µg/mL) and an MIC [15] of 10 µM (≈ 31.6 µg/mL). It also gave an MIC [16] of 5 µM (≈ 15.8 µg/mL), an MIC [17] of 10 µM (≈ 31.6 µg/mL) and an MIC (Escherichia coli EC16) of 5 µM (≈ 15.8 µg/mL). It also gave an MIC (Escherichia coli EC18) of 10 µM (≈ 31.6 µg/mL).

`CC[C@H](C)[C@H](N)C(=O)N[C@@H](C)C(=O)N[C@@H](C)C(=O)N[C@@H](CCC(=O)O)C(=O)N[C@@H](CCCN=C(N)N)C(=O)N[C@@H](CCCN=C(N)N)C(=O)N[C@@H](Cc1ccc(O)cc1)C(=O)N[C@@H](C)C(=O)N[C@H](C(=O)N[C@H](C(=O)N[C@@H](Cc1ccc(O)cc1)C(=O)N[C@@H](CCC(N)=O)C(=O)N[C@@H](C)C(=O)N[C@@H](CCCN=C(N)N)C(=O)N[C@@H](CC(C)C)C(=O)N[C@@H](Cc1c[nH]c2ccccc12)C(=O)N[C@@H](C)C(=O)N[C@@H](Cc1ccccc1)C(=O)O)[C@@H](C)CC)[C@@H](C)O` [IAAERRYATIYQARLWAF] gave an MIC (Escherichia coli UTI89) of at least 56.8 µM, an MIC (Escherichia coli) of 80.4 µM (≈ 177 µg/mL) and an MIC [5] of 56.8 µM (≈ 125 µg/mL). For the same compound, the MIC [2] was 56.8 µM (≈ 125 µg/mL), the MIC [8] was 56.8 µM (≈ 125 µg/mL) and the MIC (Escherichia coli CFT073) was at least 56.8 µM.

With `CC[C@H](C)[C@H](NC(=O)[C@@H](NC(=O)[C@@H](N)CCCN=C(N)N)[C@@H](C)CC)C(=O)N[C@@H](CC(=O)O)C(=O)N[C@@H](CCCN=C(N)N)C(=O)N[C@@H](CC(C)C)C(=O)N[C@@H](Cc1c[nH]c2ccccc12)C(=O)N[C@@H](CCCN=C(N)N)C(=O)N[C@H](C(=O)N[C@@H](CCCN=C(N)N)C(=O)N[C@@H](CCCN=C(N)N)C(=O)N1CCC[C@H]1C(=O)N[C@@H](CCC(N)=O)C(=O)N[C@@H](CCCCN)C(=O)N1CCC[C@H]1C(=O)N[C@@H](CCCCN)C(=O)N[C@@H](Cc1ccccc1)C(=O)N[C@H](C(=O)N[C@H](C(=O)N[C@H](C(=O)N[C@@H](Cc1c[nH]c2ccccc12)C(=O)N[C@H](C(=O)N[C@@H](CCCN=C(N)N)C(=O)O)C(C)C)C(C)C)[C@@H](C)O)C(C)C)C(C)C` [RIIDRLWRVRRPQKPKFVTVWVR] the MIC [18] was 0.519 µM (≈ 1.56 µg/mL), the MIC [19] was 0.0083 µM (≈ 0.0249 µg/mL) and the MIC (Escherichia coli E44813) was 4.16 µM (≈ 12.5 µg/mL). The MIC [20] was at least 41.6 µM, the MIC [21] was 8.32 µM (≈ 25 µg/mL) and the MIC [22] was 0.519 µM (≈ 1.56 µg/mL). It also gave an MIC [23] of 0.519 µM (≈ 1.56 µg/mL) and an MIC [24] of 0.26 µM (≈ 0.78 µg/mL).

With `CC(C)[C@H](NC(=O)[C@H](CCCCN)NC(=O)[C@H](Cc1c[nH]c2ccccc12)NC(=O)[C@H](CCCN=C(N)N)NC(=O)CNC(=O)[C@H](CCC(N)=O)NC(=O)[C@@H](NC(=O)[C@@H](N)CCCN=C(N)N)C(C)C)C(=O)N[C@@H](CCCN=C(N)N)C(=O)N[C@@H](C)C(=O)N[C@@H](CO)C(=O)N[C@@H](Cc1ccccc1)C(=O)N[C@@H](Cc1ccccc1)C(=O)N[C@@H](CCCCN)C(=O)O` [RVQGRWKVRASFFK] the MIC [25] was 18.1 µM (≈ 32 µg/mL), the MIC [26] was at least 36.3 µM and the MIC [27] was 18.1 µM (≈ 32 µg/mL). The MIC [28] was at least 36.3 µM, the MIC [29] was 4.53 µM (≈ 8 µg/mL) and the MIC [30] was 4.53 µM (≈ 8 µg/mL). The MIC [31] was 9.06 µM (≈ 16 µg/mL), the MIC [32] was 4.53 µM (≈ 8 µg/mL) and the MIC [9] was 36.3 µM (≈ 64 µg/mL). For the same compound, the MIC [33] was 9.06 µM (≈ 16 µg/mL), the MIC [34] was at least 36.3 µM and the MIC [35] was 18.1 µM (≈ 32 µg/mL).
